In assay [1] the test system is SPCA-1 cells transfected with JWA-knockdown plasmids. The assay is described as follows: Colony formation of SPCA-1 cells transfected with JWA-knockdown plasmids (Example 22). Format: cell-based, human. To be noted: JAC4-treated JWA-knockdown SPCA-1 vs JAC4-treated si-Control. The protocol:
(§1) 1. SPCA-1 and BEAS-2B cells (or SPCA-1 and BEAS-2B cells transfected with JWA-knockdown plasmids) in the exponential growth phase were plated in 6-well plates at a specific amount. The number of plated cells is as follows
(§2) 2. After the cells adhered to the container wall, the cells were treated (or not treated) with […] JAC4 and treated with X-ray of 0, 2, 4, or 6 Gy. The medium was replaced with a fresh medium containing JAC4 at the corresponding concentration once every 2 days (or the cells were treated with X-ray of 0, 2, 4, or 6 Gy after adhesion, and the medium was replaced with a fresh medium once every 2 days).
(§3) 3. After the cells were cultured for 10-14 days, colonies were visually observed. The culture medium was discarded, and the cells were fixed with methanol for 10-20 min, stained with crystal violet for 10 min, slowly washed with flowing clear water thrice, photographed, and counted for colonies containing>50 cells.
(§4) 4. The colony forming efficiency (CFE)=(number of colonies formed/number of seeded cells) 100% was calculated, and the cell survival fraction (SF)=(colony forming efficiency of treatment group/colony forming efficiency of 0 Gy group)×100% was calculated from the colony forming efficiency. […]

Assay [2] concerns BEAS-2B cells. Nature of the assay: Apoptosis (Hoechst 33342) and mitochondrial membrane potential (JC-1), BEAS-2B (Example 22). It is filed as cell-based, human. The protocol: Severe DSBs may cause apoptosis. SPCA-1 and BEAS-2B cells were plated and cultured for 24 h before they were treated with 10 μM JAC4 for 24 h and 4 Gy X-ray for 24 h. The cells were stained with Hoechst 33342 (see Hoechst staining for apoptosis detection in Example 13) to evaluate the effect of JAC4 in combination with radiation on apoptosis. […] The decrease in mitochondrial membrane potential (JC-1) is a marker event in the early stage of apoptosis. The mitochondrial membrane potential was measured using fluorescent probe JC-1. The red fluorescence indicates a high mitochondrial membrane potential leading to JC-1 aggregate formation, and the green fluorescence indicates the mitochondrial membrane potential depolarization. The fluorescence ratio of red to green reflects the mitochondrial membrane potential and the number of early apoptotic cells.

The subject of assay [3] is IEC-6 cells. Nature of the assay: Western blot of DNA repair and apoptosis proteins in irradiated IEC-6 cells (Example 14). Format: cell-based.
The subject of another assay is SPCA-1 cells. The assay is described as follows: γ-H2AX foci and Western blot (DSBs), SPCA-1 (Example 22). It is filed as cell-based, human. The protocol: To investigate the effect of JAC4 in combination with X-ray on DSBs in SPCA-1 and BEAS-2B cells, SPCA-1 and BEAS-2B cells were pretreated with 10 μM JAC4 for 24 h and 4 Gy X-ray for 2 h, and then subjected to γ-H2AX fluorescent labeling and Western immunoblot (see Example 4 for detailed procedures).

Assay [4] concerns BEAS-2B cells. Nature of the assay: CCK-8 cell viability, JAC4 with X-ray, BEAS-2B (Example 22). It is filed as cell-based, human. The settings on record: 10 μM JAC4 24 h + 4 Gy X-ray 24 h. The protocol: SPCA-1 and BEAS-2B cells were cultured in a 90%/DMEM+10% FBS+100 μg/mL ciprofloxacin culture medium. The SPCA-1 and BEAS-2B cells were pretreated for 24 h with 10 μM JAC4 and subjected to 4 Gy X-ray treatment for 24 h and then CCK-8 detection, so as to explore the influence of JAC4 in combination with X-ray on the viability of SPCA-1 and BEAS-2B cells. The specific procedures are as follows:
1. SPCA-1 and BEAS-2B cells in the exponential growth phase were plated in a 96-well plate at 5,000 cells/well in triplicate for each group.
2. After 24 h of culture, when the cells fully adhered to the container wall and returned to normal morphology, the cells were treated with X-ray radiation of 0, 4, 8, 12, 16, or 20 Gy or JAC4 at 0, 1, 5, 10, 20, or 50 μM.
3. After 24 h of treatment, CCK-8 reagent was added at 10 μL/well, and the cells were incubated in a cell incubator for 1 h. The absorbance (OD) at 450 nm was measured.
4. Cell viability equation: cell viability (%)=[…]×100%/(ODcontrol−ODblank).

Assay [5] concerns IEC-6 cells. The assay is described as follows: Early apoptosis by Annexin V-PI staining in irradiated IEC-6 cells (Example 13). It is filed as cell-based. To be noted: 1 μM JAC4 24 h + 12 Gy X-ray, 24 h after. The protocol: The apoptosis of IEC-6 cells was determined by Annexin V-PI staining and the early apoptosis rates of IEC-6 cells after different treatments were summarized (***p<0.001). The procedures for the detection by Annexin V-PI staining are as follows: IEC-6 cells were seeded in a 6-well plate at 2×10^5 cells/well. After adhesion, the cells were treated with 1 μM JAC4 or DMSO for 24 h and subjected to 12 Gy of X-ray radiation. After 24 h, the cells were harvested in PBS and analyzed using the Annexin V apoptosis detection kit (BD, FACS AriaIII, USA) on a flow cytometer.

Assay [6] relates to BEAS-2B cells transfected with JWA-knockdown plasmids. The assay is described as follows: Colony formation of BEAS-2B cells transfected with JWA-knockdown plasmids (Example 22). To be noted: JAC4-treated JWA-knockdown BEAS-2B vs JAC4-treated si-Control. It is filed as cell-based, human. The protocol:
as §1, §2, §3, §4

Setting [7] is: JAC4 1 μM or 10 μM 24 h + 12 Gy, vs control group.
The mark [8] stands for this setting: SPCA-1, 10 μM JAC4 + 4 Gy X-ray vs X-ray monotherapy.

SMILES strings stand for the structures.

The results in this text go back to patent publication US20250345318A1, “COMPOUND AND USE THEREOF IN PREVENTING OR TREATING RADIATION DAMAGE” (SIMCERE PHARMACEUTICAL CO., LTD., priority 2022, published 2025).

Turning to `c1ccc(CSc2nnc(C3COc4ccccc4O3)o2)nc1` (stereo not shown) [JAC4], in assay [1], the “cell survival rate (radiosensitization curve)” value is on record as “significantly increased” and the “number of colonies formed” value is given as “significantly higher”. The “apoptosis (Hoechst 33342)” value in the assay with BEAS-2B cells [2] (10 μM JAC4 24 h + 4 Gy X-ray 24 h) is “decreased the pro-apoptotic effect of X-ray”. In the assay with BEAS-2B cells [2] (JAC4 in combination with X-ray), the “mitochondrial membrane potential (JC-1)” value is given as “reversed the X-ray-induced decrease in mitochondrial membrane potential”. In the assay on IEC-6 cells [3] (setting [7]), the “anti-apoptotic proteins (Bcl-2)” value was “increases” and the “pro-apoptotic proteins (spliced PARP1, spliced Caspase-3, spliced Caspase-9, Bax)” value is “decreases”. Moreover, the XRCC1 expression level entry in the assay with IEC-6 cells [3] (JAC4 treatment after radiation (small intestine tissue and IEC-6 cells)) is “increased its expression level”. The γ-H2AX foci result in the assay on SPCA-1 cells (SPCA-1, 10 μM JAC4 24 h + 4 Gy X-ray 2 h vs X-ray monotherapy) is reported as “increase”. Besides, in the assay on SPCA-1 cells (setting [8]), the “JWA expression level (Western blot)” value is “increased” and the “γ-H2AX expression level (Western blot)” value is “increased”. Moreover, the “BEAS-2B cell viability (CCK-8)” value in the assay with BEAS-2B cells [4] is “alleviated the inhibitory effect of X-ray”. For the same compound, the “early apoptosis rate (Annexin V-PI)” value in the assay on IEC-6 cells [5] was 5.74±0.80%. In addition, the “cell survival rate (radiosensitization curve)” value in assay [6] was “significantly decreased”.
